Results reported in patent US11371019B2, “Efficient generation of human red blood cells via enriching peripheral blood erythroid progenitors” (Whitehead Institute for Biomedical Research, priority 2016, dated 2022).

Legend:
[1] = system: TGFBR3^lo mouse BFU-E cells; assay: colony forming assay for large BFU-E colony numbers; assay type: cell-based; details: culture system; FIG. 12
Description: FIG. 12. A chart showing an exemplary colony forming assays were conducted to determine large BFU-E colony numbers from 100 TGFBR3^lo mouse BFU-E cells cultured under the indicated conditions. Colony forming assays were performed at indicated time points.
(§1) For new drug discovery or drug repurposing for treating blood diseases, compounds of interest were added into cell culture after progenitor purification. The efficacy of drugs is evaluated based on total red blood cell production, numbers of erythroid progenitor BFU-E and CFU-E (quantified by colony forming assay) and/or level of fetal globin expression.

[2] = system: purified mouse TGFBR3^lo BFU-E cells; assay: total red cell production from purified BFU-E cells in SFELE medium; assay type: cell-based; details: culture system; FIG. 13
Description: FIG. 13. A chart showing the treatment of purified mouse TGFBR3^lo BFU-E cells with DMSO, DEX or TGFβ signaling inhibitor galunisertib. The cells were seeded in SFELE medium supplemented with the test agent.
as §1

Cc1cccc(-c2nn3c(c2-c2ccnc4ccc(C(N)=O)cc24)CCC3)n1 [galunisertib]
BFU-E numbers [1]: increase BFU-E numbers
total red cell production [2]: increase
